Reference: US20090004137A1, “Uridine Derivatives as Antiviral Drugs Against a Flaviviridae, Especially Hcv” (priority 2004, published 2009)

Key:
[1] = Cytotoxicity against CEM cells; assay type: cell-based; settings: human
[2] = Cytotoxicity against VERO cells; assay type: cell-based; settings: African green monkey
[3] = system: subgenomic HCV replicon BM4-5 in Huh7 cells; test: Antiviral assay on HCV subgenomic replicon, Northern blot of (+)-strand HCV RNA; assay type: cell-based, Hepatitis C Virus; settings: for IC50 / IC90: Hepatitis C virus, 72 h, Huh7 BM4-5 replicon, positive strand HCV RNA by Northern blot, three days treatment; for IC50: read-out: IC50, anti-HCV activity, (+)-RNA; for IC90: read-out: IC90, anti-HCV activity, (+)-RNA; for Selectivity Index (SI), ratio between CC50 and IC50: replicon system
Protocol: (§1) Antiviral and Cytotoxicity assays for HCV. Huh7 cells harbouring the subgenomic HCV replicon BM4-5 (J. T. Guo et al., J. Virol. 2001, 75: 8516-8523) were used in this study. Cells were maintained in Dulbecco's modified Eagle's medium high glucose 4.5 g/l (LifeTechnlogies) supplemented with 10% fetal bovine serum, 1% L-glutamine, 1% penicillin and streptomycin, 1% L-Pyruvate and 500 μg/ml of geneticien (G418, Invitrogen). Geneticin was used to select cells permitting the HCV RNA replication. Cells were passaged every four days with a 1:4 ratio.
Cells were seeded in 6-wells plates at a density of 2.5×10^5 cells per well, sixteen hours before the beginning of treatment. […] The administration of each drug was renewed every day for three consecutive days. Ribarivin (ICN Pharmaceuticals), mycophenolic acid (MPA, Sigma), and interferon alpha-2b (IntronA®)) were used in the same conditions as positive controls. The concentrations used for these drugs were respectively: 0; 0.5; 1; 2; 4; 8; 16; 32; 64; 128; 256 and 512 μM for ribavirin, 0; 2.5; 5; 10; 20; 40 μM for mycophenolic acid, and 0; 0.1; 1; 10; 100 and 1000 Ul/mL for IFN alpha-2b. Total RNA was extracted at the end of treatment (24 hours after the last day of treatment) with the <<Extract all>> reagent (Eurobio), which is a mix of phenol and guanidium thiocyanate. Northern blot analysis was then performed using the NorthernMax™-Gly kit (Ambion), following manufacturer's instructions. Five micrograms of total RNA were denaturated in glyoxal buffer at 50° C. for 30 minutes, separated by 1.1% agarose gel electrophoresis, and then transferred for 12 hours onto a charged nylon membrane (HybondN+, Amersham). Hybridization was carried out with three different [^32P]CTP-labelled riboprobes obtained by in vitro transcription (Riboprobe in vitro transcription system, Promega). Two probes were complementary to the NS5A region of the HCV genome of negative polarity and positive polarity. A third probe was complementary to the beta-actin mRNA and obtained by in vitro transcription from a specific plasmid (PTRI beta actin human, reference 7424, Ambion). First, the blot was hybridized with the riboprobes directed against the negative strand of HCV RNA and beta-actin mRNA, respectively. After one night of hybridization at 68° C., the membrane was washed, then exposed to X-ray film and a phosphor screen (phosphorimager). This screen was then scanned and quantitative analysis was achieved using ImageQuant software. The amount of beta-actin mRNA was used as an internal loading control to standardize the amount of HCV RNA detected. The same membrane was subsequently hybridized with the […] to determine the level of positive strand HCV RNA, suing the same approach.

[4] = Cytotoxicity against PBM cells; assay type: cell-based; settings: human
[5] = Cell viability (neutral red) on the replicon system; assay type: cell-based; settings: human, Huh7 cells harbouring the subgenomic HCV replicon BM4-5, neutral red test, drug renewed daily for three days, read-out: CC50, cytotoxicity on Replicon System
Protocol: as §1
For cell viability assays, cells were seeded in 96-well plates at a density of 12,500 cells per well. They were treated by the different molecules with the same concentrations and conditions than those used for the antiviral assays. Then, cell viability was measured by neutral red assay. Neutral red specifically colors lysosomes and its accumulation depends on cellular membrane integrity. The yield of neutral red incorporated in cells is proportional to the number of living cells. At the end of treatment, culture medium was removed; cells were washed by PBS, then coloured with neutral red at 0.005% for 3 hours at 37° C. Cells were then fixed 1 minute by formol calcium and lysed by atreatment with a vol/vol mixture of acetic acid and ethanol. After 15 minutes incubation, absorbance was read at 490 nm.

| SMILES | melting point | CC50 [1] | CC50 [2] | IC50 [3] | IC90 [3] | Selectivity Index (SI), ratio between CC50 and IC50 [3] | CC50 [4] | CC50 at 3 days [5] |
| --- | --- | --- | --- | --- | --- | --- | --- | --- |
| CC(=O)OC[C@H]1O[C@@H](n2cc(/C(I)=C\I)c(=O)[nH]c2=O)C[C@@H]1OC(C)=O | 76 to 78 °C |  |  |  |  |  |  |  |
| O=c1[nH]c(=O)n([C@@H]2O[C@H](CO)C[C@H]2O)cc1C#CI [Compound 12c, 5-(2-Iodoethynyl)-3′-deoxyuridine] |  | > 100 µM | 3.2 µM | > 200 µM | > 200 µM | ≦1 | > 100 µM | > 200 µM |
| COc1c(C)c2c(c(O)c1C/C=C(\C)CCC(=O)O)C(=O)OC2 [MPA, mycophenolic acid, reference compound] |  |  |  | 40 µM |  | <1 |  | 7 µM |
| O=c1[nH]c(=O)n([C@H]2C[C@H](O)[C@@H](CO)O2)cc1/C(Br)=C\Br [Compound 17a, (E)-5-(1,2-Dibromovinyl)-2′-deoxyuridine] |  | 43.9 µM | > 100 µM | < 200 µM | > 200 µM | ≧1 | > 100 µM | > 200 µM |
| O=c1[nH]c(=O)n([C@@H]2O[C@H](CO)[C@@H](O)[C@H]2O)cc1/C(I)=C\I [Compound 14b, (E)-5-(1,2-Diiodovinyl)-uridine] | 107 to 109 °C | 41.7 µM | 49.5 µM | 162 µM | > 250 µM | >1.5 | > 100 µM | > 250 µM |
| CC(=O)OC[C@H]1O[C@@H](n2cc(C#CI)c(=O)[nH]c2=O)[C@H](OC(C)=O)[C@@H]1OC(C)=O | 100 to 102 °C |  |  |  |  |  |  |  |
| CC(=O)OC[C@H]1O[C@@H](n2cc(/C(I)=C\I)c(=O)[nH]c2=O)[C@H](OC(C)=O)[C@@H]1OC(C)=O | 83 to 85 °C |  |  |  |  |  |  |  |
| O=c1[nH]c(=O)n([C@H]2C[C@H](O)[C@@H](CO)O2)cc1/C(Br)=C\I [Compound 15a, (E)-5-(1-Bromo-2-iodovinyl)-2′-deoxyuridine] |  | 0.13 µM | 6.6 µM | > 100 µM | > 100 µM | <1 | 13.3 µM | 43 µM |
| CC(=O)OC[C@H]1O[C@@H](n2cc(/C(Br)=C\Br)c(=O)[nH]c2=O)[C@H](OC(C)=O)[C@@H]1OC(C)=O | 83 to 85 °C |  |  |  |  |  |  |  |
| O=c1[nH]c(=O)n([C@H]2C[C@H](O)[C@@H](CO)O2)cc1/C(Cl)=C\I [Compound 16a, (E)-5-(1-Chloro-2-iodovinyl)-2′-deoxyuridine] |  | 14.8 µM | 1.4 µM | 79.8 µM | > 207 µM | 2.7 | 3.2 µM | 213 µM |
| O=c1[nH]c(=O)n([C@H]2C[C@H](O)[C@@H](CO)O2)cc1/C(I)=C\I [Compound 14a, (E)-5-(1,2-Diiodovinyl)-2′-deoxyuridine] | 103 to 105 °C | 19.5 µM | 19.5 µM | > 161 µM | > 263 µM | <1 | 14.7 µM | 76.7 µM |
| O=c1[nH]c(=O)n([C@@H]2O[C@H](CO)C[C@H]2O)cc1C#CBr [Compound 13c, 5-(2-Bromoethynyl)-3′-deoxyuridine] |  | > 100 µM | 6.4 µM | > 300 µM | > 300 µM | ≦1 | > 100 µM | > 300 µM |
| CC(=O)OC[C@H]1O[C@@H](n2cc(C#CI)c(=O)[nH]c2=O)C[C@@H]1OC(C)=O | 175 to 177 °C (dec.) |  |  |  |  |  |  |  |
| O=c1[nH]c(=O)n([C@@H]2O[C@H](CO)[C@@H](O)[C@H]2O)cc1C#CI [Compound 12b, 5-(2-Iodoethynyl)-uridine] |  | > 100 µM | > 100 µM | > 200 µM | > 200 µM | <1 | > 100 µM | 148 µM |
| O=c1[nH]c(=O)n([C@H]2C[C@H](O)[C@@H](CO)O2)cc1C#CI [Compound 12a, 5-(2-Iodoethynyl)-2′-deoxyuridine] | 135 to 137 °C | 15.8 µM | > 100 µM | 57.1 µM | > 239 µM | >3.2 | 7.5 µM | > 182 µM |
| CC(=O)OC[C@@H]1C[C@@H](OC(C)=O)[C@H](n2cc(C(Br)=CBr)c(=O)[nH]c2=O)O1 | 78 to 80 °C |  |  |  |  |  |  |  |
| O=c1[nH]c(=O)n([C@@H]2O[C@H](CO)[C@@H](O)[C@H]2O)cc1/C(Br)=C\I [Compound 15b, (E)-5-(1-Bromo-2-iodovinyl)-uridine] |  | 93.6 µM | > 100 µM | > 100 µM | > 100 µM | ≦1 | > 100 µM | > 100 µM |
| CC(=O)OC[C@@H]1C[C@@H](OC(C)=O)[C@H](n2cc(/C(I)=C\I)c(=O)[nH]c2=O)O1 | 75 to 77 °C |  |  |  |  |  |  |  |
| CC(=O)OC[C@H]1O[C@@H](n2cc(/C(Br)=C\I)c(=O)[nH]c2=O)C[C@@H]1OC(C)=O | 82 to 84 °C |  |  |  |  |  |  |  |
| O=c1[nH]c(=O)n([C@H]2C[C@H](O)[C@@H](CO)O2)cc1C#CBr [Compound 13a, 5-(2-Bromoethynyl)-2′-deoxyuridine] |  | > 100 µM | > 100 µM | > 200 µM | > 200 µM | ≧1 | > 100 µM | > 200 µM |
| CC(=O)OC[C@H]1O[C@@H](n2cc(/C(Br)=C\I)c(=O)[nH]c2=O)[C@H](OC(C)=O)[C@@H]1OC(C)=O | 86 to 88 °C |  |  |  |  |  |  |  |
| CC(=O)OC[C@H]1O[C@@H](n2cc(C(Br)=CBr)c(=O)[nH]c2=O)C[C@@H]1OC(C)=O | 79 to 81 °C |  |  |  |  |  |  |  |
| O=c1[nH]c(=O)n([C@@H]2O[C@H](CO)C[C@H]2O)cc1/C(Cl)=C\I [Compound 16c, (E)-5-(1-Chloro-2-iodovinyl)-3′-deoxyuridine] |  | 66.6 µM | 15.3 µM | > 200 µM | > 200 µM | ≦1 | 94.4 µM | > 200 µM |
| O=c1[nH]c(=O)n([C@@H]2O[C@H](CO)[C@@H](O)[C@H]2O)cc1/C(Br)=C\Br [Compound 17b, (E)-5-(1,2-Dibromovinyl)-uridine] |  | > 100 µM | 59.8 µM | > 200 µM | > 200 µM | ≦1 | > 100 µM | > 200 µM |
| O=c1[nH]c(=O)n([C@@H]2O[C@H](CO)C[C@H]2O)cc1/C(Br)=C\Br [Compound 17c, (E)-5-(1,2-Dibromovinyl)-3′-deoxyuridine] |  | 79.3 µM | 7.8 µM | > 200 µM | > 200 µM | ≦1 | > 100 µM | > 200 µM |
| O=c1[nH]c(=O)n([C@@H]2O[C@H](CO)C[C@H]2O)cc1/C(I)=C\I [Compound 14c, (E)-5-(1,2-Diiodovinyl)-3′-deoxyuridine] |  | > 100 µM | 42.6 µM | > 200 µM | > 200 µM | ≦1 | 87.2 µM | > 200 µM |
